According to patent US11365450B2, “Group classification and prognosis prediction system based on biological characteristics of gastric cancer” (Novomics Co., Ltd., priority 2017, dated 2022):
Entries after “also recorded” stand apart in the source; their conditions may differ.

Columns and labels:
Format in all cases: cell-based, Human
[1] = test system: Hs746T cells; assay: in vitro scratch wound-healing (migration) assay; settings: LY2157299 50 μM; wound width after 72 hours
Method: Migration assay: Hs746T and NCI-N87 cells were grown into monolayers in a culture medium containing 10% FBS and 1% antibiotics. When confluency reached 70%, the cell monolayers were scratched with a 100-μl pipette tip. After 72 hours, the wound width was measured and normalized by the wound width measured immediately after scratching. LY2157299 (50 μM) was administered to evaluate the effect of the TGF-β inhibitor on cell migration.

[2] = test system: Hs746T cells; assay: invasion assay (HUVEC monolayer transwell); settings: LY2157299 50 μM; 48 hours incubation
Method: Invasion assay: For the assay, 2×10^4 HUVEC cells were placed in a culture medium (M199) in a fibronectin-coated transwell, followed by coating the bottom of the transwell with 0.2% gelatin and cell culture for 48 hours until monolayer formation. Thereafter, 1×10^5/50 μl Hs746T and NCI-N87 cells containing FBS-free CellTracker™ (Molecular Probes, C2925) were separately added to the transwell. A culture medium containing 10% FBS was added to the lower chamber. After incubation for 48 hours, upper cells of the membrane were removed using a cotton swab. Cells on the lower membrane were lysed in 200 μl of a lysis buffer at room temperature for 2 hours to 3 hours. Fluorescence was measured with Ex/Em 492/517. To examine the effect of a TGF-β inhibitor on cell invasion ability, 50 μM of LY2157299 (AdooQ, California, USA) was administered.

[3] = test system: Hs746T cells; assay: in vitro tumor spheroid formation assay; settings: LY2157299 50 μM; 30 days of cell culture
Method: Tumor spheroid formation assay: Ten cells were cultured in 50 μl of DMEM/F12 (Gibco) supplemented with bFGF, EGF, B27, 10% FBS, and 1% antibiotics in a 96-well plate. After 30 days of cell culture, the number of tumor spheroids in each well was counted. In addition, LY2157299 (50 μM) was administered to examine the effect of the TGF-β inhibitor on tumor sphere formation.

Cc1cccc(-c2nn3c(c2-c2ccnc4ccc(C(N)=O)cc24)CCC3)n1 [LY2157299]
delayed; also recorded: suppression: wound-healing ability of Hs746T cells [1] | invasion ability of Hs746T cells [2] | 3D spheroid formation ability of Hs746T cells [3]
